Measured values reported in patent publication US10781211B2, “Spirocycle compounds and methods of making and using same” (Lundbeck La Jolla Research Center, Inc., priority 2016, dated 2020).

How the values were obtained:
Type in all cases: in vivo
Details in all cases: 5 mg/kg oral gavage
[1] = target: MAGL (Mus musculus (Mouse), UniProt O35678); test: Mouse brain proteomes from inhibitor treated mice (oral gavage, sacrifice 4 h after administration, ABPP analysis)
Experimental: (§1) Preparation of Mouse Brain Proteomes from Inhibitor Treated Mice.
(§2) Inhibitors were administered to wild-type C57Bl/6J by oral gavage in a vehicle, e.g. PEG400/Ethanol/PBS (7/2/1). Each animal was sacrificed 4 h following administration and brain proteomes were prepared and analyzed according to previously established methods (See Niphakis, M. J., et al. (2011) ACS Chem. Neurosci. and Long, J. Z., et al. Nat. Chem. Biol. 5:37-44). Data from this assay is shown in Table 2 (% inhibition at 5 mg/kg).

[2] = target: FAAH (Mus musculus (Mouse), UniProt O08914); test: Mouse brain proteomes from inhibitor treated mice (oral gavage, sacrifice 4 h after administration, ABPP analysis), FAAH
Experimental: as §1, §2

[3] = target: ABHD6 (Mus musculus (Mouse), UniProt Q8R2Y0); test: Mouse brain proteomes from inhibitor treated mice (oral gavage, sacrifice 4 h after administration, ABPP analysis), ABHD6
Experimental: as §1, §2

MAGL, sequence (O35678 whole entry): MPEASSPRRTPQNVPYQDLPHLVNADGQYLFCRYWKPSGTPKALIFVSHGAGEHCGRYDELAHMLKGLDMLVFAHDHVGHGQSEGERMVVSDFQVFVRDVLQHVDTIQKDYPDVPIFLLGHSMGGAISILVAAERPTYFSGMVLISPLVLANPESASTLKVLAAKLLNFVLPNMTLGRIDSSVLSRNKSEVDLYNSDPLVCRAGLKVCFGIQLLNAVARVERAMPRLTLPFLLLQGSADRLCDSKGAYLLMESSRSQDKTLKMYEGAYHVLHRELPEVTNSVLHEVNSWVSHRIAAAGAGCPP
FAAH, sequence (O08914 whole entry): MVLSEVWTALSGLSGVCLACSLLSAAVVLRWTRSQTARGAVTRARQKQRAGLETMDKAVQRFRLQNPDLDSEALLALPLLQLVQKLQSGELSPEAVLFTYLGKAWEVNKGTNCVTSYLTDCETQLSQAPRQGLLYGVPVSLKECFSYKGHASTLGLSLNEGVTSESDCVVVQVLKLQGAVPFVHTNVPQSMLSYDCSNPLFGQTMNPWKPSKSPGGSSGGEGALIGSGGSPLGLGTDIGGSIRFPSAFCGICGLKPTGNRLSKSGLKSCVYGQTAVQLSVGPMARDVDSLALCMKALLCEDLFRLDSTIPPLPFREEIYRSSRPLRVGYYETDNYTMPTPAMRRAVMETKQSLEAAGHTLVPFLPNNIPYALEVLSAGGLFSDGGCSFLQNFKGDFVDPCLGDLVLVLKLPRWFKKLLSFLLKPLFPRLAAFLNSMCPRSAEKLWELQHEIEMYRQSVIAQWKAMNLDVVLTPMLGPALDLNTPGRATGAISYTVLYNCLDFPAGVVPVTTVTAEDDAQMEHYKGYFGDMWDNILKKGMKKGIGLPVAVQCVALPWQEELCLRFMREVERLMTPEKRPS
ABHD6, sequence (Q8R2Y0 whole entry): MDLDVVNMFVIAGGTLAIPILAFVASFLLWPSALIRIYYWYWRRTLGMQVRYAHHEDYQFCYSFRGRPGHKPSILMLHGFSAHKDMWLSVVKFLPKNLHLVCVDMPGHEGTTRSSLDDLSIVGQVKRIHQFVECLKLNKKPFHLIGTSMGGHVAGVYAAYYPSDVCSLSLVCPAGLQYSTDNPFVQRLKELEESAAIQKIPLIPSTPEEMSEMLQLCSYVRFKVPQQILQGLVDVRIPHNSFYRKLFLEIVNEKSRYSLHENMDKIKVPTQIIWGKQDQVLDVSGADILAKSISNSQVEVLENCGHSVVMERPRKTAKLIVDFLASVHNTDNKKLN

Compound | MAGL % Inh 5 mg/kg (mouse) [1] | FAAH % Inh 5 mg/kg (mouse) [2] | ABHD6 % Inh 5 mg/kg (mouse) [3]
CCOc1cccc(CN2CCCC23CCN(C(=O)OC(C(F)(F)F)C(F)(F)F)CC3)c1 [Example 5, 1,1,1,3,3,3-Hexafluoropropan-2-yl 1-(3-ethoxybenzyl)-1,8-diazaspiro[4.5]decane-8-carboxylate] | ### (### is ≥ 75%) | # (# is < 25%) | –
COc1ccc(F)cc1CN1CCCC12CCN(C(=O)OC(C(F)(F)F)C(F)(F)F)CC2 [Example 8, 1,1,1,3,3,3-Hexafluoropropan-2-yl 1-(5-fluoro-2-methoxybenzyl)-1,8-diazaspiro[4.5]decane-8-carboxylate] | ### (### is ≥ 75%) | – | –
COc1c(Cl)cccc1CN1CCCC12CCN(C(=O)OC(C(F)(F)F)C(F)(F)F)CC2 [Example 10, 1,1,1,3,3,3-Hexafluoropropan-2-yl 1-(3-chloro-2-methoxybenzyl)-1,8-diazaspiro[4.5]decane-8-carboxylate] | ### (### is ≥ 75%) | – | # (# is < 25%)
O=C(OC(C(F)(F)F)C(F)(F)F)N1CCC2(CCN(Cc3ccc(Cl)cc3N3CCOCC3)C2)CC1 [Example 21, 1,1,1,3,3,3-Hexafluoropropan-2-yl 2-(4-chloro-2-morpholinobenzyl)-2,8-diazaspiro[4.5]decane-8-carboxylate] | ### (### is ≥ 75%) | # (# is < 25%) | –
O=C(OC(C(F)(F)F)C(F)(F)F)N1CCC2(CCCN2Cc2ccc(F)c(OCCF)c2)CC1 [Example 29, 1,1,1,3,3,3-Hexafluoropropan-2-yl 1-(4-fluoro-3-(2-fluoroethoxy)benzyl)-1,8-diazaspiro[4.5]decane-8-carboxylate] | ### (### is ≥ 75%) | – | ### (### is ≥ 75%)
O=C(OC(C(F)(F)F)C(F)(F)F)N1CCC2(CCCN2Cc2ccc(OCCF)cc2)CC1 [Example 31, 1,1,1,3,3,3-Hexafluoropropan-2-yl 1-(4-(2-fluoroethoxy)benzyl)-1,8-diazaspiro[4.5]decane-8-carboxylate] | ### (### is ≥ 75%) | # (# is < 25%) | –
O=C(OC(C(F)(F)F)C(F)(F)F)N1CCC2(CCCN2Cc2cc(Cl)cc(N3CCOCC3)c2)CC1 [Example 33, 1,1,1,3,3,3-Hexafluoropropan-2-yl 1-(3-chloro-5-morpholinobenzyl)-1,8-diazaspiro[4.5]decane-8-carboxylate] | ### (### is ≥ 75%) | – | # (# is < 25%)
CC1(C)CC2(CCN(C(=O)OC(C(F)(F)F)C(F)(F)F)CC2)CN1Cc1ccc(Cl)cc1 [Example 48, 1,1,1,3,3,3-Hexafluoropropan-2-yl 2-(4-chlorobenzyl)-3,3-dimethyl-2,8-diazaspiro[4.5]decane-8-carboxylate] | ### (### is ≥ 75%) | # (# is < 25%) | –
O=C(OC(C(F)(F)F)C(F)(F)F)N1CCC2(CCCN2Cc2ccccc2Cl)CC1 [Example 60, 1,1,1,3,3,3-Hexafluoropropan-2-yl 1-(2-chlorobenzyl)-1,8-diazaspiro[4.5]decane-8-carboxylate] | ### (### is ≥ 75%) | – | # (# is < 25%)
O=C(OC(C(F)(F)F)C(F)(F)F)N1CCC2(CCCN2Cc2ccc(Cl)cc2)CC1 [Example 62, 1,1,1,3,3,3-Hexafluoropropan-2-yl 1-(4-chlorobenzyl)-1,8-diazaspiro[4.5]decane-8-carboxylate] | ### (### is ≥ 75%) | – | –
CCN1CCCc2cccc(CN3CCC4(CCN(C(=O)OC(C(F)(F)F)C(F)(F)F)CC4)C3)c21 [Example 71, 1,1,1,3,3,3-Hexafluoropropan-2-yl 2-((1-ethyl-1,2,3,4-tetrahydroquinolin-8-yl)methyl)-2,8-diazaspiro[4.5]decane-8-carboxylate] | ### (### is ≥ 75%) | # (# is < 25%) | –
O=C(OC(C(F)(F)F)C(F)(F)F)N1CCC2(CCCN2Cc2cccc(N3CCCCC3)c2Cl)CC1 [Example 80, 1,1,1,3,3,3-Hexafluoropropan-2-yl 1-(2-chloro-3-(piperidin-1-yl)benzyl)-1,8-diazaspiro[4.5]decane-8-carboxylate] | ### (### is ≥ 75%) | – | –
O=C(O)C1CCN(c2cc(Cl)cc(CN3CCCC34CCN(C(=O)OC(C(F)(F)F)C(F)(F)F)CC4)c2)CC1 [Example 122, 1-(3-Chloro-5-((8-(((1,1,1,3,3,3-hexafluoropropan-2-yl)oxy)carbonyl)-1,8-diazaspiro[4.5]decan-1-yl)methyl)phenyl)piperidine-4-carboxylic acid] | ### (### is ≥ 75%) | – | –
O=C(O)C1CCN(c2cc(CN3CCCC34CCN(C(=O)OC(C(F)(F)F)C(F)(F)F)CC4)cc(C(F)(F)F)c2)CC1 [Example 123, 1-(3-((8-(((1,1,1,3,3,3-Hexafluoropropan-2-yl)oxy)carbonyl)-1,8-diazaspiro[4.5]decan-1-yl)methyl)-5-(trifluoromethyl)phenyl)piperidine-4-carboxylic acid] | ### (### is ≥ 75%) | # (# is < 25%) | –
CS(=O)(=O)N1CCc2cccc(CN3CCCC34CCN(C(=O)OC(C(F)(F)F)C(F)(F)F)CC4)c2C1 [Example 146, 1,1,1,3,3,3-Hexafluoropropan-2-yl 1-((2-methanesulfonyl-1,2,3,4-tetrahydroisoquinolin-8-yl)methyl)-1,8-diazaspiro[4.5]decane-8-carboxylate] | ### (### is ≥ 75%) | # (# is < 25%) | –
O=C(OC(C(F)(F)F)C(F)(F)F)N1CCC2(CCCN2Cc2ccc3c(c2)COC3)CC1 [Example 151, 1,1,1,3,3,3-Hexafluoropropan-2-yl 1-((1,3-dihydroisobenzofuran-5-yl)methyl)-1,8-diazaspiro[4.5]decane-8-carboxylate] | ### (### is ≥ 75%) | – | –
O=C(OC(C(F)(F)F)C(F)(F)F)N1CCC2(CCN(Cc3ccc(C(F)(F)F)c(N4CCCC4)c3)C2)CC1 [Example 157, 1,1,1,3,3,3-Hexafluoropropan-2-yl 2-(3-(pyrrolidin-1-yl)-4-(trifluoromethyl)benzyl)-2,8-diazaspiro[4.5]decane-8-carboxylate] | ### (### is ≥ 75%) | # (# is < 25%) | –
Cc1ccc(CN2CCCC23CCN(C(=O)OC(C(F)(F)F)C(F)(F)F)CC3)cc1C(F)(F)F [Example 180, 1,1,1,3,3,3-Hexafluoropropan-2-yl 1-(4-methyl-3-(trifluoromethyl)benzyl)-1,8-diazaspiro[4.5]decane-8-carboxylate] | ### (### is ≥ 75%) | – | –
O=C(O)C1COCCN1c1cc(CN2CCCC23CCN(C(=O)OC(C(F)(F)F)C(F)(F)F)CC3)cc(C(F)(F)F)c1 (centres unmarked) [Example 200] | – | # (# is < 25%) | # (# is < 25%)
N#Cc1cc(CN2CCCC23CCN(C(=O)OC(C(F)(F)F)C(F)(F)F)CC3)cc(N2CCC(C(=O)O)CC2)c1 [Example 210] | ### (### is ≥ 75%) | # (# is < 25%) | –
O=C(O)[C@@H]1CCCN(c2cc(C(F)(F)F)ccc2CN2CCC3(CCN(C(=O)OC(C(F)(F)F)C(F)(F)F)CC3)C2)C1 [Example 211] | – | # (# is < 25%) | # (# is < 25%)
CC1(C(=O)O)CCCN(c2cc(C(F)(F)F)ccc2CN2CCC3(CCN(C(=O)OC(C(F)(F)F)C(F)(F)F)CC3)C2)C1 (centres unmarked) [Example 216] | – | # (# is < 25%) | # (# is < 25%)
CC1(C(=O)O)CCN(c2cc(C(F)(F)F)ccc2CN2CCCC23CCN(C(=O)OC(C(F)(F)F)C(F)(F)F)CC3)C1 (centres unmarked) [Example 230] | – | # (# is < 25%) | # (# is < 25%)
N#Cc1ccc(CN2CCCC23CCN(C(=O)OC(C(F)(F)F)C(F)(F)F)CC3)c(N2CCC(C(=O)O)CC2)c1 [Example 249] | – | # (# is < 25%) | # (# is < 25%)
O=C(O)C1CCN(Cc2cc(CN3CCCC34CCN(C(=O)OC(C(F)(F)F)C(F)(F)F)CC4)cc(C(F)(F)F)c2)C1 (centres unmarked) [Example 253] | – | # (# is < 25%) | # (# is < 25%)
O=C(O)C1CCN(Cc2cc(C(F)(F)F)ccc2CN2CCCC23CCN(C(=O)OC(C(F)(F)F)C(F)(F)F)CC3)C1 (centres unmarked) [Example 262] | – | # (# is < 25%) | # (# is < 25%)
O=C(O)C1CCN(Cc2cc(CN3CCCC34CCN(C(=O)OC(C(F)(F)F)C(F)(F)F)CC4)cc(OC(F)(F)F)c2)CC1 [Example 269] | – | # (# is < 25%) | # (# is < 25%)
O=C(O)C1CCN(Cc2cc(CN3CCCC34CCN(C(=O)OC(C(F)(F)F)C(F)(F)F)CC4)cc(OC(F)(F)F)c2)C1 (centres unmarked) [Example 270] | – | # (# is < 25%) | # (# is < 25%)
